Test results from US20110039763A1, “TARGETED ANTIMICROBIAL MOIETIES” (C3 JIAN, INC., priority 2009, published 2011).
“Also recorded” adds a separate entry of the source.

Tests used:
microorganisms [1] = experiment: Targeting peptide binding to target microorganisms (Tables 3, 10, 12); conditions: microorganism(s) the targeting peptide binds; binding in aqueous buffers varied with peptide solubility, preferably 1x PBS
microorganisms [2] = experiment: Peptide activities: targeting/binding, antimicrobial, growth or phenotype altering (Tables 7, 8); type: cell-based; conditions: peptides having multiple activities
microorganisms [3] = experiment: Morphology, biofilm and growth disrupting peptides (Table 5); type: cell-based; set-up: key: A: Peptide aggregates; B: Less hyphal formation; Clumps; Diffuse clumps and small polyps; F: Diffuse growth; H: Thin; I: Growth inhibition; Microcolony formation; Rippled; Small polyps; Thick; W: Halo formation on top, microlonies on bottom
Excerpt: In certain embodiments peptides that induce alterations in phenotype or other biological activities can also be used as antimicrobial effector moieties.

Substance | Target(s) (microorganisms [1]) | Activities (microorganisms [2]) | Organism, effect (microorganisms [3]; E. faecalis) | Organism, effect (microorganisms [3]; C. jejuni) | Organism, effect (microorganisms [3]; MRSA) | Organism, effect (microorganisms [3]; S. epidermidis) | Organism, effect (microorganisms [3]; S. pneumoniae) | Organism, effect (microorganisms [3]; C. albicans) | Organism, effect (microorganisms [3]; C. jeikeium) | Organism, effect (microorganisms [3]; B. subtilis)
PF-602: peptide having multiple activities (chain 1 LEKEKKEYIEKLFKTK; chain 2 LEKEKKEYIEKLFKTK; Peptide with targeting and/or antimicrobial activity) | P. mirabilis; also recorded: C. jeikeium | G B | E. faecalis (A) | – | – | – | – | – | – | –
PF-604: peptide having multiple activities (chain 1 LMEQVEV; chain 2 LMEQVEV; Peptide with targeting and/or antimicrobial activity) | S. epidermidis; also recorded: C. albicans; also recorded: C. jeikeium | G B | E. faecalis (A) | – | – | – | – | – | – | –
PF-607: peptide having multiple activities (chain 1 YIESDPRKFDYIFGAIRDH; chain 2 YIESDPRKFDYIFGAIRDH; Peptide with targeting and/or antimicrobial activity) | S. epidermidis and P. mirabilis and E. coli and MRSA and S. pneumoniae and C. jeikeium | G B | E. faecalis (A) | C. jejuni (R) | MRSA (S) | S. epidermidis (M) | S. pneumoniae (R) | – | – | –
PF-609: peptide having multiple activities (chain 1 TEIKLDNNEYLVLNLDDILGILK; chain 2 TEIKLDNNEYLVLNLDDILGILK; Peptide with targeting and/or antimicrobial activity) | P. mirabilis; also recorded: E. coli; also recorded: S. pneumoniae | G B | E. faecalis (A) | C. jejuni (R) | MRSA (C) | – | S. pneumoniae (R) | – | – | –
PF-613: peptide having multiple activities (chain 1 ADEFAKL; chain 2 ADEFAKL; Peptide with targeting and/or antimicrobial activity) | C. jeikeium | G B | E. faecalis (A) | – | MRSA (C) | S. epidermidis (R) | – | – | – | –
PF-614: peptide having multiple activities (chain 1 GLDIYA; chain 2 GLDIYA; Peptide with targeting and/or antimicrobial activity) | S. epidermidis; also recorded: E. coli; also recorded: C. jeikeium | G B | E. faecalis (A) | C. jejuni (R) | – | S. epidermidis (M) | S. pneumoniae (R) | – | – | –
PF-616: peptide having multiple activities (chain 1 IVFVVTKEKK; chain 2 IVFVVTKEKK; Peptide with targeting and/or antimicrobial activity) | C. jeikeium | G B | E. faecalis (A) | – | – | S. epidermidis (R) | – | – | – | –
PF-617: peptide having multiple activities (chain 1 PMNAAEPE; chain 2 PMNAAEPE; Peptide with targeting and/or antimicrobial activity) | P. aeruginosa; also recorded: C. albicans | G B | E. faecalis (H) | – | – | – | S. pneumoniae (I) | C. albicans (H) | – | –
PF-621: peptide having multiple activities (chain 1 PPSSFLV; chain 2 PPSSFLV; Peptide with targeting and/or antimicrobial activity) | S. epidermidis; also recorded: C. albicans | G B | E. faecalis (H) | – | – | – | S. pneumoniae (I) | – | – | –
PF-622: peptide having multiple activities (chain 1 TREDVFSVRLINNIVNKQA; chain 2 TREDVFSVRLINNIVNKQA; Peptide with targeting and/or antimicrobial activity) | S. epidermidis; also recorded: P. aeruginosa; also recorded: C. albicans; also recorded: S. pneumoniae; also recorded: E. faecalis; also recorded: C. jeikeium | G B | E. faecalis (D) | – | MRSA (D) | S. epidermidis (D) | S. pneumoniae (M) | – | C. jeikeium (D) | –
PF-623: peptide having multiple activities (chain 1 VLFAVYLGALDWLFSWLTQKM; chain 2 VLFAVYLGALDWLFSWLTQKM; Peptide with targeting and/or antimicrobial activity) | S. epidermidis and P. aeruginosa and MRSA and S. pneumoniae and E. faecalis and C. jeikeium | G B | E. faecalis (D) | – | MRSA (D) | S. epidermidis (M) | S. pneumoniae (D) | – | C. jeikeium (R) | –
PF-625: peptide having multiple activities (chain 1 SDSTNNARTRKKARDVTTKDIDK; chain 2 SDSTNNARTRKKARDVTTKDIDK; Peptide with targeting and/or antimicrobial activity) | S. epidermidis; also recorded: M. luteus; also recorded: S. pneumoniae; also recorded: C. jeikeium | G B | – | – | – | – | S. pneumoniae (H) | – | – | –
PF-626: peptide having multiple activities (chain 1 KYDFDDFEPEEA; chain 2 KYDFDDFEPEEA; Peptide with targeting and/or antimicrobial activity) | S. epidermidis and M. luteus and E. coli and C. albicans and MRSA and S. pneumoniae and E. faecalis and C. jeikeium | G B | – | – | – | – | S. pneumoniae (H) | – | – | –
PF-627: peptide having multiple activities (chain 1 INDLLSYFTLHEK; chain 2 INDLLSYFTLHEK; Peptide with targeting and/or antimicrobial activity) | S. epidermidis and P. aeruginosa and MRSA and S. pneumoniae and E. faecalis and C. jeikeium | G B | E. faecalis (H) | – | MRSA (R) | S. epidermidis (H) | S. pneumoniae (I) | C. albicans (B) | – | –
PF-629: peptide having multiple activities (chain 1 GLAAIATVFALY; chain 2 GLAAIATVFALY; Peptide with targeting and/or antimicrobial activity) | S. epidermidis and P. aeruginosa and C. albicans and MRSA and S. pneumoniae and E. faecalis and C. jeikeium | G B | E. faecalis (R) | – | MRSA (D) | S. epidermidis (C) | S. pneumoniae (M) | – | C. jeikeium (R) | –
PF-631: peptide having multiple activities (chain 1 LIIYFSKTGNTARATRQI; chain 2 LIIYFSKTGNTARATRQI; Peptide with targeting and/or antimicrobial activity) | S. epidermidis and P. aeruginosa and C. albicans and MRSA and S. pneumoniae and E. faecalis and C. jeikeium | G B | E. faecalis (H) | – | – | – | S. pneumoniae (I) | – | – | –
PF-632: peptide having multiple activities (chain 1 TTIQGVASLEKHGFRYTIIYPTRI; chain 2 TTIQGVASLEKHGFRYTIIYPTRI; Peptide with targeting and/or antimicrobial activity) | S. epidermidis and P. aeruginosa and C. albicans and MRSA and S. pneumoniae and E. faecalis and C. jeikeium | G B | E. faecalis (D) | – | MRSA (D) | S. epidermidis (D) | S. pneumoniae (M) | C. albicans (B) | C. jeikeium (D) | B. subtilis (H)
